{
  "source": "paper PMC12196278",
  "about": "“Targeting Neuronal Nitric Oxide Synthase (nNOS) as a Novel Approach to Enhancing the Anti-Melanoma Activity of Immune Checkpoint Inhibitors” (Pharmaceutics, 2025)",
  "key": {"[1]": {"test_system": "CS91 murine melanoma allograft", "test": "Survival analysis in the murine melanoma model (endpoint tumor volume 2000 mm^3)", "type": "in vivo, mouse", "details": "DBA/2 mice, CS91, result in words", "description": "(§1) As described above, male DBA/2 mice were purchased from Charles River and housed in the Chapman University vivarium under pathogen-free conditions. Each mouse received a subcutaneous injection in the flank with 0.25 × 10^6 CS91 cells suspended in 50% Matrigel. […] The body weight and tumor volume were measured twice weekly for three weeks. Tumors were measured using calipers, and the volume (mm^3) was calculated with the following formula: volume = [length × (width^2)]/2. The mice were sacrificed once their tumors reached 2000 mm^3, and dates were recorded for survival analysis.\nStatistical analyses were carried out using GraphPad Prism 9. Comparisons of multiple groups were performed using mixed-effects analysis of variance (ANOVA) followed by Tukey’s post hoc test for parametric data. Statistical comparisons of two groups were performed using an unpaired two-tailed t-test for parametric data. Statistical comparison for a simple 2 × 2 contingency table was performed using a Chi-Square calculator on Social Science Statistics. Kaplan Meier methods were utilized for estimating the survival probability over time, with a tumor volume of 2000 mm^3 marking the endpoint for the survival study. A p value less than 0.05 was considered statistically significant for all statistical analyses. Data are graphically represented as bar graphs with the mean ± standard error of the mean (SEM)."}, "peripheral T cells": {"test_system": "peripheral T cells", "test": "Immune profile of peripheral T cells in allograft melanoma mice (flow cytometry)", "type": "in vivo, mouse", "details": "HH044 10 mg/kg intraperitoneal daily, peripheral blood, vs control group", "description": "The in vivo studies were carried out in compliance with the ARRIVE guidelines. All animal procedures were approved by the Institutional Animal Care and Use Committee (IACUC) at Chapman University and conducted in compliance with the policies of Chapman University and federal, state, and local animal welfare authorities. DBA/2 mice were purchased from Charles River (Wilmington, MA, USA) and housed in the Chapman University vivarium. Male mice were selected for the in vivo studies due to the markedly slow growth rate of CS91 cells in female mice observed in previous studies. To induce melanoma tumor growth, the mice were injected subcutaneously with 1 × 10^5 CS91 murine melanoma cells in a 100 μL solution of 50% Matrigel basement membrane matrix (CB354248, Corning, Corning, NY, USA). […] At the end of the study, peripheral blood was collected from the mice for T cell analysis.\nCells were blocked in FACS block buffer (0.5% BSA, 2% FBS in 1× PBS) and incubated in a surface marker antibody dilution in FACS wash buffer (0.5% BSA, 0.05% NaN3 in 1× PBS). Following fixation with True-Nuclear Fix Buffer (424401; BioLegend, San Diego, CA, USA), the cells were incubated with an intracellular antibody diluted in True-Nuclear Perm Buffer (424401; BioLegend, San Diego, CA, USA) overnight at 4 °C. The stained cells were then washed with Perm Buffer and analyzed using a BD Fortessa X20 flow cytometer (BD Biosciences, San Jose, CA, USA). Compensation beads (anti-mouse 552843; anti-rat 552844; BD Biosciences, Franklin Lakes, NJ, USA) stained with single antibodies were used to calculate the compensation, and data were analyzed and gated using FlowJo v. 10.8.1 (FlowJo LLC, Ashland, OR, USA).\nPeripheral blood samples were collected from the DBA/2 mice at the end of the study. T cells were isolated from the blood using Ficoll separation and stained as described above. The Ficoll-Paque solution was obtained from Cytiva (17144002; Marlborough, MA, USA). The T cell marker antibodies used were Brilliant Violet 605 anti-mouse CD3, PE/Cyanine7 anti-mouse CD4, Brilliant Violet 785 anti-mouse CD8a, APC/Cyanine7 anti-mouse CD279 (PD-1), Alexa Fluor 647 anti-GATA3, Alexa Fluor 488 anti-mouse FOXP3, Brilliant Violet 421 anti-T-bet (100237; 100421; 100749; 135223; 653809; 126406; 644815; BioLegend, San Diego, CA, USA), and PE-CF594 mouse anti-mouse RORγt (562684; BD Biosciences, Franklin Lakes, NJ, USA)."}, "melanoma cells": {"test_system": "melanoma cells", "set-up": "method as in PMID 35105915", "details": "read-out: Cytotoxicity IC50; cited from earlier work"}, "[2]": {"test": "Body weight, cecum weight and toxicity signs in treated mice", "type": "in vivo, mouse", "description": "as §1\nUpon reaching the study endpoint, the mice were euthanized, and organs were collected and weighed."}, "Human eNOS": {"target": "Human eNOS (Homo sapiens, UniProt P29474)", "sequence (P29474 whole entry)": "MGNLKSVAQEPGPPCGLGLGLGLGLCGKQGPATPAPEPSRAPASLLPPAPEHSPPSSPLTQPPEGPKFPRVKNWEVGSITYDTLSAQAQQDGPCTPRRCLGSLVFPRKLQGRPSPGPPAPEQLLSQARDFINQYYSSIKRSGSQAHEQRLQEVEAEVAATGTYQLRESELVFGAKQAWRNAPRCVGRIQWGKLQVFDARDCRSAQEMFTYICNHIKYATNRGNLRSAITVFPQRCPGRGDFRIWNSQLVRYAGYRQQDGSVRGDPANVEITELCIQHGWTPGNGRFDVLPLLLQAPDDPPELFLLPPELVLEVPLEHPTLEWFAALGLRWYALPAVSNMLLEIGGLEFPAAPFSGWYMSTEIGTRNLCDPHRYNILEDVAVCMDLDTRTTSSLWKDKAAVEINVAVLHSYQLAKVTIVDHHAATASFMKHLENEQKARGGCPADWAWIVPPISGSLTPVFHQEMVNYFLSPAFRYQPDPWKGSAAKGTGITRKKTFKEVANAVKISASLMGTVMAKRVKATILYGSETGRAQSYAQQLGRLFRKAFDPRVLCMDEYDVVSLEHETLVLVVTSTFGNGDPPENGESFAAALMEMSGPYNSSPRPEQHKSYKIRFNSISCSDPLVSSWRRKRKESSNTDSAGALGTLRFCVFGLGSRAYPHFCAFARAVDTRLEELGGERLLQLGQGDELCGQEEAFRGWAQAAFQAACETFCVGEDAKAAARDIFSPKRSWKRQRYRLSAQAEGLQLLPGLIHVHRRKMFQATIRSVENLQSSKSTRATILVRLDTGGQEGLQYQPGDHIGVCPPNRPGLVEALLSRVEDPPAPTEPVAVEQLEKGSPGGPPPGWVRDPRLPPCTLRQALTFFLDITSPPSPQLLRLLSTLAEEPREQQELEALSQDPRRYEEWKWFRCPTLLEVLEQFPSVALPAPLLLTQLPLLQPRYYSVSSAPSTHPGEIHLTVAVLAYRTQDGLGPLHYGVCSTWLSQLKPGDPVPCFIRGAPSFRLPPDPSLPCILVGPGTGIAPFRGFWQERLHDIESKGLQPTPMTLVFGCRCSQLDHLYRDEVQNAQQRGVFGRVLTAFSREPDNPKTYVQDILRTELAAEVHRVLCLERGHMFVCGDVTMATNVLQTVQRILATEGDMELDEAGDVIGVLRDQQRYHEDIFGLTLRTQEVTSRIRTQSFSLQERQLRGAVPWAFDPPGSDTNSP", "test": "NOS selectivity assay, human eNOS", "type": "biochemical", "details": "calculated from IC50 with Cheng-Prusoff equation; read-out: Ki Human eNOS (he)", "description": "The Ki values were calculated from the IC50 values of the corresponding dose-response curves using the Cheng-Prusoff equation. […] All standard errors were less than 5%. Selectivity values were determined by calculating the ratios of the respective Ki values."}, "CS91 cells": {"test_system": "CS91 cells", "test": "Ex vivo sensitivity of murine melanoma cells after prolonged treatment (MTT)", "type": "cell-based, mouse", "description": "The aseptically collected tumor samples were mechanically dissociated in 1× PBS and passed through a 40 µm cell strainer. Single cell suspensions were centrifuged and resuspended in full growth media supplemented with 100 µg/mL of primocin. The cells were then plated and allowed to adhere for 24 h. Afterward, the cultures were washed twice with 1× PBS to remove non-adherent cells and allowed to grow in full growth media.\nGraphPad Prism 9 was used to determine the IC50 of each compound by plotting the percent cell viability against the log drug concentrations and fitted using a nonlinear fit of the normalized data."}, "[3]": {"test_system": "CS91 murine melanoma allograft", "test": "In vivo anti-melanoma efficacy, immunocompetent allograft model, tumor volume", "set-up": "species or system mouse", "details": "day 18, DBA/2 mice, nNOS inhibitor 10 mg/kg/day intraperitoneal, anti-PD-1 100 µg twice per week for 2 weeks", "description": "as §1"}, "A375 cells": {"test_system": "A375 cells", "test": "NanoString nCounter PanCancer IO 360 gene expression profiling", "type": "cell-based, human", "description": "After treatment, the total RNA samples were collected from A375 cells using an RNeasy Mini Kit (#74104; Qiagen, Hilden, Germany) and stored at −80 °C prior to analysis. The nCounter PanCancer IO 360 Panel and nCounter Pro Analysis System (NanoString, Seattle, WA, USA) were used to quantify gene expression changes in 770 genes implicated in immune-oncological processes. The transcriptomic data were analyzed using ROSALIND online platform (https://www.rosalind.bio/, San Diego, CA, USA).\n(b) Comparing IFN-γ treatment to control. (c) Comparing the combination treatment to IFN-γ alone. […] All the treatments were independently repeated three times. […] The analysis was based on the expression changes of genes involved in each specific pathway, with a higher score signifying a greater probability of pathway involvement."}, "Human nNOS": {"target": "Human nNOS (Homo sapiens, UniProt P29475)", "sequence (P29475 whole entry)": "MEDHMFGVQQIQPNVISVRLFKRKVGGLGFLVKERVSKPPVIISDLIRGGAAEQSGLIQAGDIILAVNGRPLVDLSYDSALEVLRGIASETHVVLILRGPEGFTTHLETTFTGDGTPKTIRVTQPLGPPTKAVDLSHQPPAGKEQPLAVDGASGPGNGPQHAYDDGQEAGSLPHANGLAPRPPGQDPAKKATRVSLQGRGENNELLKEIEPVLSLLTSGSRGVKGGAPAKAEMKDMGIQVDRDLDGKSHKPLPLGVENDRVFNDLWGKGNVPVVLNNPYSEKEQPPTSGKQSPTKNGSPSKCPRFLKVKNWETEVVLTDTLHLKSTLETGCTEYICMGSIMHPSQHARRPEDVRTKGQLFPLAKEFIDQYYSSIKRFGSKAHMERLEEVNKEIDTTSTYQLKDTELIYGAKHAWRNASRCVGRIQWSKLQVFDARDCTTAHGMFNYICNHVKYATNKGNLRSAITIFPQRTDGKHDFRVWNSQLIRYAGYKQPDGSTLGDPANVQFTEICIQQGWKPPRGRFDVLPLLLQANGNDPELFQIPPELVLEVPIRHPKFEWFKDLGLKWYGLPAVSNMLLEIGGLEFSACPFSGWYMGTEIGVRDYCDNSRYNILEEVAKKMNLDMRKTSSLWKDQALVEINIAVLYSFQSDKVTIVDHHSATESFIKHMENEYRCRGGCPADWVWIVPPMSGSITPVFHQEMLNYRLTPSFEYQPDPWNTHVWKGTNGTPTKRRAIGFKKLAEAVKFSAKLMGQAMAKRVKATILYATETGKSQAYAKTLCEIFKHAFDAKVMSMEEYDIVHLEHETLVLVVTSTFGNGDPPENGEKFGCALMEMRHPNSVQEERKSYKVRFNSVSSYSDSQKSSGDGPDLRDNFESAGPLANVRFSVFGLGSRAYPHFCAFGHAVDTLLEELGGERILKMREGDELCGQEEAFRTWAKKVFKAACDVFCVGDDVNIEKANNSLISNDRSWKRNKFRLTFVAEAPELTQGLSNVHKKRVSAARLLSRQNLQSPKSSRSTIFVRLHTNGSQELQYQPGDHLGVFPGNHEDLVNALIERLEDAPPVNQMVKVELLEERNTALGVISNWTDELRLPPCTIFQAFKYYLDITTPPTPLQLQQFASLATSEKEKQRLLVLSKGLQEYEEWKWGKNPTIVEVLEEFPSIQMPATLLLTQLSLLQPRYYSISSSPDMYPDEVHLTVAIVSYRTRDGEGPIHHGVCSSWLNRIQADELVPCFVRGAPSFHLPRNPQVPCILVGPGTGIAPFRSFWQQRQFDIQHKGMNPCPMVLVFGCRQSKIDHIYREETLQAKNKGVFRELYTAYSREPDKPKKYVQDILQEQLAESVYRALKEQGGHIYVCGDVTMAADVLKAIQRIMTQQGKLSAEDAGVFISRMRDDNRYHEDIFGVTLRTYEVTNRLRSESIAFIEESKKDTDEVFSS", "test": "nNOS inhibitory assay, human nNOS", "type": "biochemical", "details": "calculated from IC50 with Cheng-Prusoff equation; read-out: Ki Human nNOS (hn)", "description": "The Ki values were calculated from the IC50 values of the corresponding dose-response curves using the Cheng-Prusoff equation. […] Selectivity values were determined by calculating the ratios of the respective Ki values."}},
  "note": "Where two headings read alike, the source gives them in different places.",
  "data": [
    {"smiles": "N=C(Nc1ccc(CCNCc2cccc(NC(=N)c3cccs3)c2)cc1)c1cccs1", "note": "[HH044]", "values": [
      {"measurement": "median survival / mouse survival compared with the control group", "setting": "[1]", "value": "not found to have significantly different median survival values"},
      {"measurement": "CD4+ T cell counts", "setting": "peripheral T cells", "value": "significantly increased"},
      {"measurement": "CD4+GATA3+, CD4+RORγt+, CD4+Tbet+, and CD4+RORγt+FOXP3+ T cell counts", "setting": "peripheral T cells", "value": "decreased"},
      {"measurement": "CD8+FOXP3+, CD8+GATA3+, CD8+Tbet+, and CD8+RORγt+FOXP3+ T cells", "setting": "peripheral T cells", "value": "significantly decreased"},
      {"measurement": "frequency of CD8+PD-1+ T cells", "setting": "peripheral T cells", "value": "markedly increased"},
      {"measurement": "overall percentage of CD8+ T cells", "setting": "peripheral T cells", "value": "significantly decreased"},
      {"measurement": "IC50", "setting": "melanoma cells", "value": "5.27 ± 3.3", "unit": "µM"},
      {"measurement": "cecum weights", "setting": "[2]; HH044 intraperitoneal 10 mg/kg/day ≥21 days vs control, p < 0.0001", "value": "significantly increased"},
      {"measurement": "cecum weight", "setting": "[2]; HH044 oral gavage 10, 25 and 50 mg/kg per os daily, preliminary study", "value": "failed to observe any significant differences"},
      {"measurement": "behavior and signs of toxicity during treatment", "setting": "[2]; HH044 treatment ≥21 days", "value": "no behavioral changes or other observable signs of severe toxicity or distress"},
      {"measurement": "body weight", "setting": "[2]; HH044 treatment, 21 days", "value": "88 % of the control"},
      {"measurement": "body weight compared with the control", "setting": "[2]; prolonged treatment, 21 days", "value": "significantly lower"},
      {"measurement": "Ki", "setting": "Human eNOS", "value": 6.74, "unit": "µM"},
      {"measurement": "IC50", "setting": "CS91 cells; mice treated with the same compound 10 mg/kg/day intraperitoneal, read-out: IC50 of CS91 cells isolated from tumors of nNOS inhibitor-treated mice", "value": 10.4, "unit": "µM"},
      {"measurement": "IC50", "setting": "CS91 cells; read-out: IC50 of in vitro cultured CS91 cells", "value": 12.7, "unit": "µM"},
      {"measurement": "tumor growth / average tumor volume", "setting": "[3]", "value": "45.7 % of the control"},
      {"measurement": "Notch2 expression", "setting": "A375 cells; HH044 in the presence of IFN-γ", "value": "increased"},
      {"measurement": "AXIN1 expression", "setting": "A375 cells; HH044 treatment, A375", "value": "increased"},
      {"measurement": "WNT5A expression", "setting": "A375 cells; HH044 treatment, A375", "value": "downregulated"},
      {"measurement": "IL-1α expression", "setting": "A375 cells; HH044 treatment, A375, p < 0.05", "value": "30.3 % of the control"},
      {"measurement": "expression of EDN1, PDGFB, and MMP9", "setting": "A375 cells; HH044 treatment, A375, vs control", "value": "significantly reduced"},
      {"measurement": "Ki", "setting": "Human nNOS", "value": 0.02, "unit": "µM"}
    ]}
  ]
}
